These results are taken from paper PMC3661511, “Impact of Glucocorticoid Receptor Density on Ligand-Independent Dimerization, Cooperative Ligand-Binding and Basal Priming of Transactivation: A Cell Culture Model” (PLoS ONE, 2013).

One experiment concerns the target T1, GRdim (Homo sapiens, UniProt P04150, A458T).
T1 sequence (P04150 1-777 A458T): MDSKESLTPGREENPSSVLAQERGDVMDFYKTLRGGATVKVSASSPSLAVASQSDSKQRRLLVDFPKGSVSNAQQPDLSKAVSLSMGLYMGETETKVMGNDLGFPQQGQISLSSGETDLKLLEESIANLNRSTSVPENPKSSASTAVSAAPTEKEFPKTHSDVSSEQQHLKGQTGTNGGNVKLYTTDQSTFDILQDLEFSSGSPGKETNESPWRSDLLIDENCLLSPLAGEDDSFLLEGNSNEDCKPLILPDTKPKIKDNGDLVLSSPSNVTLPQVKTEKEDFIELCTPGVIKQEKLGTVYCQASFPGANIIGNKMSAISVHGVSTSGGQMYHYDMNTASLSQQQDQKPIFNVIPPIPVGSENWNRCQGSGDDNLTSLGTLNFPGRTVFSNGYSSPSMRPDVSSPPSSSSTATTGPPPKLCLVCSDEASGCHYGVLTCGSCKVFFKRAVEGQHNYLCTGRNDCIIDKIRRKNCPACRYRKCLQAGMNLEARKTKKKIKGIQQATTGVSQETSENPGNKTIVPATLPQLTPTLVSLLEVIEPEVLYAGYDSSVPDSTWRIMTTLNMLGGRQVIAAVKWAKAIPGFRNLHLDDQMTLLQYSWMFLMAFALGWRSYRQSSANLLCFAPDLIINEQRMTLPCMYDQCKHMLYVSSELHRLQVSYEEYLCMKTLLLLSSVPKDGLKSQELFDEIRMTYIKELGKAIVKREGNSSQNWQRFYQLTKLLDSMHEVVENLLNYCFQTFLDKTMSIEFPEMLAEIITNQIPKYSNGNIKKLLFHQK
Briefly: Promoter-reporter transactivation (pTAT-GRE2-E1b-luc) in COS-1 cells, GRdim. The experiment is classed as cell-based. The procedure:
(§1) Cells were transfected with low, medium or high GRwt, low or medium GRdim and 3000 ng pTAT-GRE2-E1b-luc filled to 14550 ng total plasmid with empty vector. Cells were replated 24 h later into 96-well plates (4×10^4 cells/well) in charcoal-stripped DMEM. […] Cells were lysed with 30 µl of passive lysis buffer (Promega), and subjected to a freeze thaw cycle. Luciferase activity was determined using a luciferase assay kit (Promega). Light emission was measured in a Veritas microplate luminometer (Turner Biosystems). Luciferase relative light units were normalized against protein concentrations. Sigmoidal dose-response curves were fit to the experimental data which generated basal induction (bottom), maximal induction (top-bottom), fold-induction (top/bottom), and log EC50.

Experiment [1] has as its target T2, GRwt (Homo sapiens, UniProt P04150).
T2 sequence (P04150 1-777): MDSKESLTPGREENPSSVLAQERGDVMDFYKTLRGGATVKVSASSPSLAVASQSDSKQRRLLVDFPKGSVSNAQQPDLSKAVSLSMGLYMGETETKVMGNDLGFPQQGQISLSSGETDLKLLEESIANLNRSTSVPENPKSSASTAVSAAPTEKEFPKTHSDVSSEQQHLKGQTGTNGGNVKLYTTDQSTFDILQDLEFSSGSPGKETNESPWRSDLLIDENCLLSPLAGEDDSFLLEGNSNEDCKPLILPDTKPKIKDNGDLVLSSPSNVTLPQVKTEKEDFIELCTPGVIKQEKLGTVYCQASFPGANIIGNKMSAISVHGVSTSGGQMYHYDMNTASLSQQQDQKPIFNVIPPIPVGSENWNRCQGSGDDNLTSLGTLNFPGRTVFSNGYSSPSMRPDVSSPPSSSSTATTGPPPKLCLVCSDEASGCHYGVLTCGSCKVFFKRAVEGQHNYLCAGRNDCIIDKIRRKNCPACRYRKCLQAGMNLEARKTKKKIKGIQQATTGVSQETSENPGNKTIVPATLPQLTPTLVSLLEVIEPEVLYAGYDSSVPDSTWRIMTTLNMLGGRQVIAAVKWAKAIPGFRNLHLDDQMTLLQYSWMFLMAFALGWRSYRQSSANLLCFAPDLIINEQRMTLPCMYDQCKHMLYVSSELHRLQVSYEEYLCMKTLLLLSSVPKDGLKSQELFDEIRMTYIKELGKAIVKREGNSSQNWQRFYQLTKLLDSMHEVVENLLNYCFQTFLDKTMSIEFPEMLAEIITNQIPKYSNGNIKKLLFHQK
Briefly: Promoter-reporter transactivation (pTAT-GRE2-E1b-luc) in COS-1 cells, GRwt. The experiment is classed as cell-based. The note with it: for EC50: read-out: Potency (log EC50) (converted). Here is the method: as §1

Experiment [2] addresses GRwt. The note with it: COS-1 cells transiently transfected with high levels of GRwt; cited from earlier work.
The target in experiment [3] is T3, Flag-tagged human glucocorticoid receptor alpha, wild type (pEFFlaghGRα) (human, UniProt P04150 1-777).
T3 construct: glucocorticoid receptor alpha (hGRα), human, wild type; construct pEFFlaghGRα, molecular mass 96 kDa as printed; also called Flag-GR; Flag-GRwt; source: COS-1, transiently transfected (DEAE-dextran), in lysate
T3 sequence (looked up): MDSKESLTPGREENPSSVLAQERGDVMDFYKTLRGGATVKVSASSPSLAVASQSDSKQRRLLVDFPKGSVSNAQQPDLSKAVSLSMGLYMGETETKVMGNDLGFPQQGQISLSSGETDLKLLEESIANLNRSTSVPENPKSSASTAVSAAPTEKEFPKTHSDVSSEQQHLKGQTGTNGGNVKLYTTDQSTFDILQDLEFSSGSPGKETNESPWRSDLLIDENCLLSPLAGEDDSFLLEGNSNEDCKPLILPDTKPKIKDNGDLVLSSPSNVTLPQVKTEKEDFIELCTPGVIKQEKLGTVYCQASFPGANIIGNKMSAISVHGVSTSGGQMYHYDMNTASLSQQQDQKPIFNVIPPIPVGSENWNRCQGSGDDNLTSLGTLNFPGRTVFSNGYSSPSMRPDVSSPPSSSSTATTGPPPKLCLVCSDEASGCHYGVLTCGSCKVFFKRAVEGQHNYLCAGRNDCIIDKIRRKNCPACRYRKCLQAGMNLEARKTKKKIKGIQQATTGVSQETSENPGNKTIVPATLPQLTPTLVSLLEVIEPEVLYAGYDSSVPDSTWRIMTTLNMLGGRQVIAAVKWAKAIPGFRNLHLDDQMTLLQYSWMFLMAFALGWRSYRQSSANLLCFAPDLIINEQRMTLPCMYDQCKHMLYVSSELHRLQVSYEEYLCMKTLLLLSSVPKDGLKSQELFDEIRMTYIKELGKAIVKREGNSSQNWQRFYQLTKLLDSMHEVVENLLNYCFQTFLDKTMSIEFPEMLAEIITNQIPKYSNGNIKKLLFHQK
Briefly: co-IP; low GR levels co-transfected in COS-1 cells; cells treated 1 h with vehicle (ethanol), 10^-6 M DEX or 10^-5 M CpdA; 600 µg lysate protein on anti-FLAG M2 affinity gel beads, 16 h at 4°C, Buffer A with 2.5% casein; immunoblot with anti-GR; GFP-GR pull-down normalized to Flag-GR. The settings on record: partners not purified. On the technique in general: In western blotting, separated proteins are transferred to a membrane and probed.

Experiment [4] deals with T3, Flag-tagged human glucocorticoid …. Briefly: co-IP; medium or high GR levels co-transfected in COS-1 cells; cells treated 1 h with vehicle (ethanol) or 10^-6 M DEX; 200 µg lysate protein on anti-FLAG M2 affinity gel beads, 16 h at 4°C, Buffer A with 2.5% casein; immunoblot with anti-GR; GFP-GR pull-down normalized to Flag-GR. The note with it: partners not purified.

Like-named read-outs stand apart in the source and are kept apart here.

For the molecule `C[C@]12CCC(=O)C=C1CC[C@@H]1[C@@H]2[C@@H](O)C[C@@]2(C)[C@H]1CC[C@]2(O)C(=O)CO` [F, cortisol], the “Maximal induction (RLU/mg protein)” value was 3.7 x 10^4± 8.3 x 10^3 RLU/mg protein at GRdim (GRdim concentration Low), 2.2 x 10^5 ± 5.7 x 10^4 RLU/mg protein on GRdim (GRdim concentration Medium), 2.8 x 10^4 ± 7.2 x 10^3 RLU/mg protein on GRwt [1] (GRwt concentration Low) and 8.8 x 10^4 ± 6 x 10^3 RLU/mg protein on GRwt [1] (GRwt concentration Medium).
The Kd is the free concentration of one partner at which half of the binding sites on the other are occupied at equilibrium, for simple one-to-one binding. For `C[C@@H]1C[C@H]2[C@@H]3CCC4=CC(=O)C=C[C@]4(C)[C@@]3(F)[C@@H](O)C[C@]2(C)[C@@]1(O)C(=O)CO` [DEX, Dexamethasone], the Kd at GRwt [2] was 12.6 nM.
In the case of `CC#C[C@]1(O)CC[C@H]2[C@@H]3CCC4=CC(=O)CCC4=C3[C@@H](c3ccc(N(C)C)cc3)C[C@@]21C` [RU486, mifepristone], the “Maximal induction (RLU/mg protein)” value at GRdim (GRdim concentration Low) is 7.1 x 10^4 ± 8.7 x 10^3 RLU/mg protein; on GRdim (GRdim concentration Medium), 4.0 x 10^5 ± 7.8 x 10^4 RLU/mg protein; at GRwt [1] (GRwt concentration Low) it was 1.8 x 10^4 ± 3.7 x 10^3 RLU/mg protein; at GRwt [1] (GRwt concentration Medium) it was 6.4 x 10^4 ± 7.5 x 10^3 RLU/mg protein.
As a reminder, the EC50 is the midpoint of the concentration-response curve. For the molecule `CC(=O)O[C@]1(C(C)=O)CC[C@H]2[C@@H]3C[C@H](C)C4=CC(=O)CC[C@]4(C)[C@H]3CC[C@@]21C` [MPA, medroxyprogesterone acetate], the figures for the “Maximal induction (RLU/mg protein)” value on GRwt [1] (GRwt concentration Low) and at GRwt [1] (GRwt concentration Medium) were 3.5 x 10^4 ± 8.3 x 10^3 RLU/mg protein and 1.5 x 10^5 ± 2.3 x 10^4 RLU/mg protein, respectively. Also, the EC50 on GRwt [1] (GRwt concentration Low, pTAT-GRE2-Elb-luc, 24h) was 23.4 nM; on GRwt [1] (GRwt concentration Medium), 8.71 nM.

B1: GFP-tagged dimerization-deficient glucocorticoid receptor (pEGFP-C2-GRA477T, carrying the GRdim sequence from pHisGRA458T) (receptor, human, UniProt P04150 1-777, looked up)
chain: MDSKESLTPGREENPSSVLAQERGDVMDFYKTLRGGATVKVSASSPSLAVASQSDSKQRRLLVDFPKGSVSNAQQPDLSKAVSLSMGLYMGETETKVMGNDLGFPQQGQISLSSGETDLKLLEESIANLNRSTSVPENPKSSASTAVSAAPTEKEFPKTHSDVSSEQQHLKGQTGTNGGNVKLYTTDQSTFDILQDLEFSSGSPGKETNESPWRSDLLIDENCLLSPLAGEDDSFLLEGNSNEDCKPLILPDTKPKIKDNGDLVLSSPSNVTLPQVKTEKEDFIELCTPGVIKQEKLGTVYCQASFPGANIIGNKMSAISVHGVSTSGGQMYHYDMNTASLSQQQDQKPIFNVIPPIPVGSENWNRCQGSGDDNLTSLGTLNFPGRTVFSNGYSSPSMRPDVSSPPSSSSTATTGPPPKLCLVCSDEASGCHYGVLTCGSCKVFFKRAVEGQHNYLCTGRNDCIIDKIRRKNCPACRYRKCLQAGMNLEARKTKKKIKGIQQATTGVSQETSENPGNKTIVPATLPQLTPTLVSLLEVIEPEVLYAGYDSSVPDSTWRIMTTLNMLGGRQVIAAVKWAKAIPGFRNLHLDDQMTLLQYSWMFLMAFALGWRSYRQSSANLLCFAPDLIINEQRMTLPCMYDQCKHMLYVSSELHRLQVSYEEYLCMKTLLLLSSVPKDGLKSQELFDEIRMTYIKELGKAIVKREGNSSQNWQRFYQLTKLLDSMHEVVENLLNYCFQTFLDKTMSIEFPEMLAEIITNQIPKYSNGNIKKLLFHQK
notes: the plasmid's name says A477T, the text A458T; also called GFP-GRdim; source: COS-1, transiently transfected (DEAE-dextran), in lysate
With B1, in experiment [3], the “GFP-GR pull-down after ethanol, relative to DEX-induced GRwt set at 100 percent (low GR level)” value fell in the range of 36 to 66%. The “GFP-GR pull-down after ethanol, relative to DEX-induced GRwt set at 100 percent (high GR level)” value in experiment [4] was 36 to 66%.
